Laboratory results: patent US8420778B2, “Tripeptides and derivatives thereof for cosmetic application in order to improve skin structure” (DSM IP Assets B.V., priority 2003, dated 2013)

Test system: Collagen Type I Synthesis in Fibroblast Cell Cultures
Test: Collagen stimulation by ELISA: stimulation of collagen type I synthesis in fibroblast cell cultures
Assay type: cell-based
Details: human skin fibroblasts, 72 h incubation
Procedure: Type I collagen of in-vitro cultured skin fibroblasts was detected with an ELISA (Enzyme-Linked Immunosorbent Assay). The increase in the collagen production of the cells was quantified in the presence of the peptidic actives by using this method. Human skin fibroblasts were isolated from foreskin and bred in culture medium. After 72 h of incubation with the corresponding peptides (actives) the quantitative determination was performed using an antibody specific for collagen I. [table] The 1st AB (MAB1340; Chemicon) and the 2nd AB (31430; Socochim S.A.) are diluted 1/500 with AB dilution solution. The fibroblasts are incubated until confluent at a density of approx. 5000 cells per well in 96 well-plates in culture medium (37° C./5% CO2) for 3 days. The medium is replaced with test medium with three different concentrations of test substance in triplicate. The following controls are tested on each plate: [table] After incubation of the plates for further 72 hours, the precipitated collagen I is detected and quantified according to the following protocol: • discard medium and wash with 200 μl/well of PBS • fix with 100 μl/well of methanol for 15 min at RT/shaker 600 rpm • discard methanol and block with 200 μl/well of milk solution for 30 min at RT/shaker 600 rpm • discard milk solution and incubate with 100 μl/well of the 1st AB dilution for 2 h at RT/shaker 600 rpm • discard 1st AB dilution and wash 3× with 200 μl/well of washing buffer • incubate with 100 μl/well of the 2nd AB dilution for 3 h at RT/shaker 600 rpm • discard 2nd AB dilution; wash 3× with 200 μl/well of washing buffer and 1× with 100 μl/well of PBS • add 100 μl/well of substrate solution for 20 min at RT/shaker 600 rpm • stop the reaction with 50 μl/well of H2SO4 (2M) and measure at 492 nm.

| Substance | % Stimulation (Conc. 50 µmol/L) | % Stimulation (Conc. 25 µmol/L) | other results |
| --- | --- | --- | --- |
| Elaidoyl-Lys-Phe-Lys-OH *2AcOH [Reference compound A, reference compound] |  |  | % Stimulation (Conc. 0.01 µmol/L): 23%; % Stimulation (Conc. 20.0 µmol/L): 43% |
| Palm-Lys-Val-Lys-OH *2AcOH [No 4] | 48% |  |  |
| H-Lys-Thr-Lys-OH*3TFA [Example 5] | 35% |  |  |
| Elaidoyl-Lys-Thr-Lys-OH*2TFA [Example 4] |  | 104% |  |
| H-Lys-Val-Lys-O-Octyl*3TFA [Example 8] |  | 31% |  |
| H-Lys-Val-Lys-NH-Cetyl*3TFA [Example 7] |  |  | % Stimulation (Conc. 100 µmol/L): 61% |
